Source: patent US20250032506A1, “GLUCOCORTICOID RECEPTOR BLOCKADE WITH MIFEPRISTONE TO SENSITIZE PANCREATIC CANCER TO IMMUNOTHERAPY” (BOARD OF REGENTS, THE UNIVERSITY OF TEXAS SYSTEM, priority 2021, published 2025)

Key:
HY24409 cells [1] = experiment: Chemokine array of conditioned medium; type: cell-based, mouse; conditions: mifepristone 20 μM, 48 hours
Procedure: Chemokine array was performed with conditioned medium from HY24409 cells treated with vehicle or mifepristone (20 μM, 48 hours) using the Proteome Profiler Mouse Chemokine Array Kit (R&D system, ARY020) following the manufacturer's instructions.

[2] = system: orthotopic HY19636 tumors; experiment: Female C57BL/6 mice bearing orthotopic HY19636 tumors; type: in vivo, mouse
Procedure: (§1) Orthotopic pancreatic tumor size was determined by MRI. Subcutaneous tumor size was measured with a caliper. […] Animal body weight was measured throughout the study.

HY24409 cells [3] = experiment: Cell cycle analysis after double thymidine block; type: cell-based, mouse; conditions: flow cytometry; mifepristone 20 μM, 48 h pretreatment; unsynchronized and after release from double thymidine block
Procedure: Cell cycle analysis Cells were seeded in 6-well plates (2×10^5 cells per well) and treated with 2 mM thymidine (Sigma-Aldrich, T9250-1G) for 18 hours, fresh medium for 9 hours, and 2 mM thymidine again for 17 hours to arrest cells in G1/S phases for synchronization. Released cells were collected at the indicated time points by centrifugation, washed in cold PBS, resuspended in 1 ml of 70% ethanol, and stored at −20° C. overnight. Cells were then collected by centrifugation and washed two times with cold PBS. To ensure that only DNA was stained, cells were treated with 50 μl of 100 μg ml^−1 RNase (New England Biolabs, T3018L), and added 425 μl of cell staining buffer (2% FBS in PBS) and 25 μl of propidium iodide solution (BioLegend, 421301). After staining, samples were analyzed by flow cytometry. Cells were gated for PI staining and the cells in G1, S, and G2/M phases were quantitated using FlowJo software.

[4] = system: orthotopic HY24409 tumors; experiment: Orthotopic HY24409 pancreatic tumors in C57BL/6 mice; type: in vivo, mouse
Procedure: as §1

[5] = system: orthotopic HY24409 tumors; experiment: Immune checkpoint blockade experiments in male C57BL/6 mice bearing orthotopic HY24409 tumors; type: in vivo, mouse; conditions: compared with the vehicle+IgG control
Procedure: as §1

[6] = system: tumors formed by KPC cell lines (HY24409, HY24160); experiment: Tumor growth in immunodeficient NSG mice implanted with KPC cell lines; type: in vivo, mouse; conditions: mifepristone oral gavage 60 mg kg-1, twice every 3 days
Procedure: as §1

SU86.86 cells = experiment: qPCR, immunoblotting and flow cytometry of PD-L1 and MHC-I pathway expression in SU86.86 cells; type: cell-based, human
Procedure: (See Bardeesy, N., et al. supra). The human PDAC cell lines SU86.86 ([…]), SW1990 ([…]), BXPC-3 ([…]), Miapaca-2 ([…]), Capan-1 ([…]), ASPC-1 ([…]), Hs766T ([…]), Colo357/FG ([…]), L3.6PL ([…]), Panc28 ([…]), Capan-2 ([…]), CF-Pac-1 ([…]), Panc3 (sex unknown), Panc1 ([…]), Panc48 (sex unknown), and HPAC ([…]) were from Mien-Chie Hung's lab stock. […] The BXPC-3, Miapaca-2, Capan-1, ASPC-1, Colo357/FG, L3.6PL, Panc28, Capan-2, CF-Pac-1, Panc3, Panc1, Panc48, and HPAC cell lines were cultured in DMEM/F-12 (Corning, 10-092-CV) supplemented with 10% FBS and 1% penicillin/streptomycin. Cells were grown in a humidified incubator with 5% CO2 at 37° C., and low-passage stocks were maintained in a centralized lab cell bank. Short tandem repeat profiling and mycoplasma tests were done by the Cytogenetics and Cell Authentication Core at MD Anderson Cancer Center.
Membranes were blocked with 10% non-fat milk in TBST and incubated with the primary antibody at 4° C. overnight, followed by incubation with the secondary antibody conjugated with horseradish peroxidase (HRP).

Question: What does the source list for CC#C[C@]1(O)CC[C@H]2[C@@H]3CCC4=CC(=O)CCC4=C3[C@@H](c3ccc(N(C)C)cc3)C[C@@]21C [mifepristone]?
Answer: chemokines secreted by HY24409 cells (HY24409 cells [1]): no chemokines that showed a change after mifepristone treatment were found; body weight [2]: without reducing body weight; tumor growth [2]: markedly inhibited tumor growth; sensitivity of tumors to dual ICB ([2]; mifepristone with dual ICB): rendered sensitivity to dual ICB; cell cycle profile (HY24409 cells [3]): neither GR knockdown (FIGS. 11Q-11R) nor mifepristone treatment (FIGS. 11S-11T) altered the cell cycle profile; body weight ([4]; C57BL/6 mice bearing orthotopic HY24409 tumors, mifepristone 60 mg kg-1): without significant loss of body weight; orthotopic pancreatic tumor volume (magnetic resonance imaging) and weight ([4]; C57BL/6 mice, HY24409, mifepristone oral gavage 60 mg kg-1, twice every 3 days): substantial reductions; tumor growth inhibition upon antibody-mediated depletion of CD8+ T cells ([4]; C57BL/6 mice, orthotopic HY24409, mifepristone plus anti-CD8 antibody): abolished; reduction in tumor weight at the endpoint ([4]; C57BL/6 mice, orthotopic HY24409, vs vehicle or control shRNA): 67.7%; survival [5]: did not lead to a significant improvement in survival; growth of tumors formed by KPC cell lines [6]: neither mifepristone treatment (FIGS. 11A-11J) nor shRNA-mediated GR knockdown (FIGS. 11K-11N) affected the growth of tumors; PD-L1 protein (SU86.86 cells; Western blot and flow cytometric analysis, MIFE 72 h): downregulated; MHC-I and B2M proteins (SU86.86 cells; Western blot and flow cytometry, MIFE 72 h): upregulation; mRNA levels of components in the MHC-I pathway, including HLA-A, HLA-B, HLA-C, B2M, SEC61B, and SEC61G (SU86.86 cells; qPCR, MIFE 20 μM, 72 h): increased; mRNA levels of immune checkpoint ligands, including PD-L1, CD47, TDO, and SIGLEC15 (SU86.86 cells; qPCR, MIFE 20 μM, 72 h): decreased
